# According to ChEMBL document CHEMBL1151058, “Synthesis and structure-activity relationships of novel THF 1-methylcarbapenems” (1997):
# What was measured:
# Type in all cases: functional
# [1] = organism: Sus scrofa; experiment: Relative hydrolysis was measured by hog renal dehydropeptidase (DHP).
# [2] = test system: Escherichia coli; experiment: In vitro minimum inhibitory concentration required against Escherichia coli GC 1792 strain
# [3] = test system: Escherichia coli; experiment: In vitro minimum inhibitory concentration required against Escherichia coli ATCC 25922 strain
# [4] = test system: Escherichia coli; experiment: Effective single oral dose required for inhibition of Escherichia coli in mice
# [5] = test system: Escherichia coli; experiment: Effective single subcutaneous dose required for inhibition of Escherichia coli in mice
# [6] = test system: Citrobacter freundii; experiment: In vitro minimum inhibitory concentration required against Citrobacter freundii GC 2211 strain
# [7] = test system: Escherichia coli; experiment: In vitro minimum inhibitory concentration required against Escherichia coli GC 2205 strain
# [8] = test system: Enterobacter cloacae; experiment: In vitro minimum inhibitory concentration required against Enterobacter cloacae GC 2209 strain
# [9] = test system: Acinetobacter calcoaceticus; experiment: In vitro minimum inhibitory concentration required against Acinetobacter calcoaceticus GC 756 strain
# [10] = test system: Staphylococcus aureus; experiment: In vitro minimum inhibitory concentration required against Staphylococcus aureus ATCC 29213 strain
# [11] = test system: Morganella morganii; experiment: In vitro minimum inhibitory concentration required against Morganella morganii GC 2213 strain
# [12] = test system: Pseudomonas aeruginosa; experiment: In vitro minimum inhibitory concentration required against Pseudomonas aeruginosa GC 1544 oprD- strain
# [13] = test system: Enterococcus faecium; experiment: In vitro minimum inhibitory concentration required against Enterococcus faecium GC 1182 strain
# [14] = test system: Staphylococcus aureus; experiment: In vitro minimum inhibitory concentration required against Staphylococcus aureus GC 2220 MRSA strain
# [15] = test system: Stenotrophomonas maltophilia; experiment: In vitro minimum inhibitory concentration required against Xanthomonas maltophilia GC 562 strain
# [16] = test system: Pseudomonas aeruginosa; experiment: In vitro minimum inhibitory concentration required against Pseudomonas aeruginosa ATCC 27853 strain
# [17] = test system: Enterococcus faecalis; experiment: In vitro minimum inhibitory concentration required against Enterococcus faecalis GC 842 strain
# [18] = Escherichia coli, po, read-out: ED50
# [19] = Escherichia coli, sc, read-out: ED50
# [20] = Acinetobacter calcoaceticus, read-out: MIC
# [21] = Enterococcus faecium, read-out: MIC
# [22] = Enterococcus faecalis, read-out: MIC
SMILES,Relative hydrolysis [1],MIC [2] [µg/mL],MIC [3] [µg/mL],MIC [6] [µg/mL],MIC [7] [µg/mL],MIC [8] [µg/mL],"MIC [9, 20] [µg/mL]",MIC [10] [µg/mL],MIC [11] [µg/mL],MIC [12] [µg/mL],"MIC [13, 21] [µg/mL]",MIC [14] [µg/mL],MIC [15] [µg/mL],MIC [16] [µg/mL],"MIC [17, 22] [µg/mL]",further results
C[C@H]1C(SC2COC(CN)C2)=C(C(=O)O)N2C(=O)[C@H]([C@@H](C)O)C12 (stereo in doubt; 3b) [listing 1 of 2 here],10,,,,,,,,,,,,,,,
C[C@H]1C(SC2COC(CN)C2)=C(C(=O)O)N2C(=O)[C@H]([C@@H](C)O)C12 (stereo in doubt; 3a) [listing 1 of 2 here],,≤ 0.06,≤ 0.06,≤ 0.06,≤ 0.06,≤ 0.06,1,≤ 0.06,,,,,,,,"ED50 [4, 18]: 3.7 mg/kg; ED50 [5, 19]: 0.27 mg/kg"
C[C@H]1C(S[C@@H]2COC[C@@H]2CN)=C(C(=O)O)N2C(=O)[C@H]([C@@H](C)O)C12 (some centres undefined),< 1,,,,,,,,,,,,,,,
C[C@H]1C(S[C@H]2CO[C@@H](CN)C2)=C(C(=O)O)N2C(=O)[C@H]([C@@H](C)O)C12 (some centres undefined),10,≤ 0.06,≤ 0.06,0.12,≤ 0.06,≤ 0.06,2,≤ 0.06,0.5,32,> 128,8,> 128,16,4,
C[C@H]1C(SC2COC(CN)C2)=C(C(=O)O)N2C(=O)[C@H]([C@@H](C)O)C12 (stereo in doubt; 3b) [listing 2 of 2 here],,,,,,,,,,,,,,,,ED50 [4]: 3.5 mg/kg; ED50 [5]: 0.28 mg/kg; MIC [13]: 128 µg/mL; MIC [9]: 2 µg/mL; MIC [17]: 2 µg/mL
C[C@H]1C(S[C@H]2CCO[C@@H]2CN)=C(C(=O)O)N2C(=O)[C@H]([C@@H](C)O)C12 (some centres undefined),18,0.5,0.5,1,0.25,0.5,,0.06,2,32,> 64,4,> 64,16,8,
C[C@@H](O)[C@H]1C(=O)N2C(C(=O)O)=C(S[C@@H]3CCO[C@@H]3CN)[C@H](C)[C@H]12,8.5,,,,,,,,,,,,,,,"ED50 [4, 18]: 3.8 mg/kg; ED50 [5, 19]: 0.34 mg/kg"
C[C@H]1C(S[C@H]2CCO[C@H]2CN)=C(C(=O)O)N2C(=O)[C@H]([C@@H](C)O)C12 (some centres undefined),4.5,0.5,0.5,0.5,0.5,0.25,4,0.12,2,16,128,8,> 128,4,4,
C[C@H]1C(S[C@H]2COC[C@@H]2CN)=C(C(=O)O)N2C(=O)[C@H]([C@@H](C)O)C12 (some centres undefined),37,0.5,0.5,1,0.5,0.5,8,0.12,4,64,> 128,16,> 128,16,8,
C[C@H]1C(SC2COC(CN)C2)=C(C(=O)O)N2C(=O)[C@H]([C@@H](C)O)C12 (stereo in doubt; 3a) [listing 2 of 2 here],19,,,,,,,,,,,,,,,
C[C@H]1C(S[C@H]2COC[C@H]2CN)=C(C(=O)O)N2C(=O)[C@H]([C@@H](C)O)C12 (some centres undefined),< 1,≤ 0.06,≤ 0.06,,,≤ 0.06,,≤ 0.06,,,,,,,,
C[C@H]1C(S[C@@H]2CO[C@H](CN)C2)=C(C(=O)O)N2C(=O)[C@H]([C@@H](C)O)C12 (some centres undefined),7.3,≤ 0.06,≤ 0.06,0.12,0.12,≤ 0.06,2,≤ 0.06,0.5,16,128,4,> 128,8,4,
C[C@@H](O)[C@H]1C(=O)N2C(C(=O)O)=C(SCCNC=N)C[C@H]12 [IMIPENEM ANHYDROUS],100,≤ 0.06,,,,≤ 0.06,,≤ 0.06,,,,,,,,"ED50 [4, 18]: 79 mg/kg; ED50 [5, 19]: 0.67 mg/kg"
C[C@H]1C(S[C@@H]2COC[C@H]2CN)=C(C(=O)O)N2C(=O)[C@H]([C@@H](C)O)C12 (some centres undefined),39,0.25,0.25,1,0.25,0.25,16,0.12,4,64,> 128,16,> 128,32,8,
C[C@H]1C(S[C@H]2CO[C@H](CN)C2)=C(C(=O)O)N2C(=O)[C@H]([C@@H](C)O)C12 (some centres undefined),,≤ 0.06,≤ 0.06,≤ 0.06,≤ 0.06,≤ 0.06,1,≤ 0.06,0.25,8,> 128,8,> 128,2,2,
C[C@@H](O)[C@H]1C(=O)N2C(C(=O)O)=C(S[C@@H]3CN[C@H](C(=O)N(C)C)C3)[C@H](C)[C@H]12 [MEROPENEM],28,≤ 0.06,≤ 0.06,≤ 0.06,≤ 0.06,≤ 0.06,0.5,≤ 0.06,≤ 0.06,4,> 128,8,> 128,0.25,2,
